Measurements from PMC8846325, “A Photoactivable Natural Product with Broad Antiviral Activity against Enveloped Viruses, Including Highly Pathogenic Coronaviruses” (Antimicrobial Agents and Chemotherapy, 2022).

Test system: HCoV-229E
Assay: HCoV-229E-Luc infection inhibition luciferase assay
Type: cell-based

Compound | HCoV-229E infection with entry inhibitor
CCOC(=O)[C@H]1O[C@@H]1C(=O)N[C@@H](CC(C)C)C(=O)NCCC(C)C [E64D] | specifically inhibited HCoV-229E infection
CN(C)C(=O)COC(=O)Cc1ccc(OC(=O)c2ccc(NC(=N)N)cc2)cc1 [Camostat] | inhibited infection
